Source: US20220372585A1, “Sensors for Aromatic Compounds and Methods of Making and Using Same” (Washington University, priority 2021, published 2022)

Columns and labels:
[1] = tested on: wild-type TynA with W110C FeaR; assay type: cell-based, E. coli MG1655; details: W110C FeaR; 24 h; FIG. 28D
Procedure: (§1) Flow cytometry was performed as previously described. […] Cytometry data was gated by forward and side scatter.

[2] = tested on: sensor systems containing FeaR-KA; assay: GFP fluorescence from PtynA in part-swapped sensor systems containing FeaR-KA; assay type: cell-based, Klebsiella aerogenes; details: 0.5 mM, 24 h, FIG. 31
Text: FIG. 31. […] PtynA from MG or KP/KA was regulated by TynA from MG or KP and FeaR from MG or KA. […] Values and error bars are the average and standard deviation of biological triplicate, respectively.
Tryptamine specific biosensors were first designed by genetic parts swapping. Three types of tynA and feaR genes from E. coli K-12 MG1655 (MG), Klebsiella aerogenes (KA), and Klebsiella pneumoniae (KP), and two types of PtynA sequences were chosen and tested in 18 different combinations (see e.g., FIG. 30). PtynA-KP/KA was constructed by replacing the FeaR binding sites of PtynA-MG with those from Klebsiella species.
Moreover, a Tryptamine specific variant I109N was discovered using a sensor system with PtynA-MG, TynA-KP and FeaR-KA as the wild type (VVT) for further directed evolution (see e.g., FIG. 32). […] Transfer curves for the tryptamine-specific FeaR-KA I109N sensor after 5 or 24 hours of induction further illustrate the specificity of the sensor for tryptamine (see e.g., FIG. 33A-FIG. 33B).

[3] = biological target: T1, WT TrpR (Escherichia coli, UniProt P0A881); assay: WT TrpR system, repression of GFP expression; assay type: cell-based, E. coli
T1 construct: trpR (WT); expressed in transfected cells; host or cells: E. coli Nissle 1917 (EcN), genomic trpR knocked out; plasmid pMBA035 (P17-trpR)
Text: Among the various aspects of the present disclosure is the provision of systems and methods for detecting aromatic compounds. An aspect of the present disclosure provides for a method of protein engineering (e.g., a regulator protein) comprising: mutagenizing specific amino acids in and around a ligand-binding site of a protein, wherein the mutagenizing enables changes in ligand-protein binding specificity while maintaining protein-DNA interaction and thus downstream gene expression control; and/or linking ligand-protein binding to output response. An aspect of the present disclosure provides for an engineered molecular sensor. […] In some embodiments, the engineered regulator protein or the ligand-protein binding site or a sequence encoding the engineered regulator protein or the ligand-protein binding site of the engineered regulator protein is at least about 80% identical to a WT regulator protein or a WT regulator ligand-protein binding site; or a sequence encoding the engineered regulator protein or ligand binding site thereof is at least about 80% identical to a sequence encoding the WT regulator protein or the WT regulator ligand-protein binding site; or functional fragment thereof, the engineered regulator protein having ligand binding activity. In some embodiments, the engineered molecular sensor is optionally genomically integrated into a microorganism, optionally selected from a probiotic or is a purified cell-free sensor. In some embodiments, the engineered regulator protein or enzyme is an engineered TrpR, TyrR, TynA, or FeaR protein. […] In some embodiments, the engineered regulator protein is an engineered TrpR and is a tryptophan (Trp)-, 5-hydroxytryptophan (5-HTP)-, or tryptamine (Trpta)-specific sensor. In some embodiments, the engineered regulator protein or enzyme is an engineered TrpR, TyrR, TynA, or FeaR, and/or wherein the engineered TrpR, TyrR, TynA, or FeaR comprises at least one mutation to a ligand-protein binding site having specific amino acid binding activity. […]

[4] = tested on: wild-type TynA with M83Y FeaR; assay: PtynA-GFP reporter, wild-type TynA with M83Y FeaR (pCX068); assay type: cell-based, E. coli MG1655; details: pCX008, pCX068, FIG. 6D, 24 h
Procedure: as §1

[5] = Sauerkraut, safe limit; cited from earlier work

Compound	response [1]	fluorescence intensity [2]	fold repression of GFP expression [3]	Fmax [4]	Fmin [4]	n (Hill coefficient) [4]	Concentration [5]
NCCc1c[nH]c2ccccc12 [Tryptamine, tryptamine]	lack of response	significant enhancement of fluorescence intensity	7 fold	–	–	–	–
NCCc1ccccc1 [Phenylethylamine, phenylethylamine]	–	–	–	1004	5.8	2.1	30 µM
